Laboratory results published in paper PMC9415947 (Pharmaceuticals, 2022).

Experiments:
[1] = biological target: T1, PI3Kδ (Homo sapiens, UniProt O00329); assay: In vitro PI3K inhibition assay (ADP-Glo kinase assay), PI3Kδ; type: biochemical; conditions: mean of two independent experiments
T1 construct: purchased Merck Millipore
Description: (§1) All compounds were tested in a biochemical assay that measured the inhibition of phosphatidylinositol […] production by PI3K isoforms using the ADP-Glo kinase assay (Promega). In addition, the effects of synthesized compounds on B cell proliferation were measured.
(§2) The potency and selectivity of compounds were assessed by measuring the ability of PI3K kinases to convert ATP to ADP during an enzymatic reaction in the presence of decreasing doses of tested compounds. The experiments were carried out using the ADP-Glo kinase assay kit (Promega), according to the manufacturer’s protocol. PI3Kα, PI3Kβ, PI3Kδ, and PI3Kγ have been purchased from Merck Millipore and phosphoinositol-4,5-bisphosphate (PIP2) lipid vesicles with phosphoserine from ThermoFisher Scientific were used as a substrate in the enzymatic reaction.
(§3) After the reaction, the ADP-Glo reagent and the kinase detection reagent were added sequentially with 40 min of incubation (25 °C, 600 rpm) after adding each reagent. Finally, the luminescence intensity was measured and the IC50 was calculated using GraphPad Prism 7 software. The presented results are the mean value of IC50 from at least two independent experiments.

[2] = biological target: T2, PI3Kγ (Homo sapiens, UniProt P48736); assay: In vitro PI3K inhibition assay (ADP-Glo kinase assay), PI3Kγ; type: biochemical; conditions: for IC50: mean of two independent experiments; for Fold Selectivity γ/δ: ratio IC50 PI3Kγ / IC50 PI3Kδ
T2 construct: purchased Merck Millipore
Description: as §1, §2, §3

T2 sequence (P48736 whole entry): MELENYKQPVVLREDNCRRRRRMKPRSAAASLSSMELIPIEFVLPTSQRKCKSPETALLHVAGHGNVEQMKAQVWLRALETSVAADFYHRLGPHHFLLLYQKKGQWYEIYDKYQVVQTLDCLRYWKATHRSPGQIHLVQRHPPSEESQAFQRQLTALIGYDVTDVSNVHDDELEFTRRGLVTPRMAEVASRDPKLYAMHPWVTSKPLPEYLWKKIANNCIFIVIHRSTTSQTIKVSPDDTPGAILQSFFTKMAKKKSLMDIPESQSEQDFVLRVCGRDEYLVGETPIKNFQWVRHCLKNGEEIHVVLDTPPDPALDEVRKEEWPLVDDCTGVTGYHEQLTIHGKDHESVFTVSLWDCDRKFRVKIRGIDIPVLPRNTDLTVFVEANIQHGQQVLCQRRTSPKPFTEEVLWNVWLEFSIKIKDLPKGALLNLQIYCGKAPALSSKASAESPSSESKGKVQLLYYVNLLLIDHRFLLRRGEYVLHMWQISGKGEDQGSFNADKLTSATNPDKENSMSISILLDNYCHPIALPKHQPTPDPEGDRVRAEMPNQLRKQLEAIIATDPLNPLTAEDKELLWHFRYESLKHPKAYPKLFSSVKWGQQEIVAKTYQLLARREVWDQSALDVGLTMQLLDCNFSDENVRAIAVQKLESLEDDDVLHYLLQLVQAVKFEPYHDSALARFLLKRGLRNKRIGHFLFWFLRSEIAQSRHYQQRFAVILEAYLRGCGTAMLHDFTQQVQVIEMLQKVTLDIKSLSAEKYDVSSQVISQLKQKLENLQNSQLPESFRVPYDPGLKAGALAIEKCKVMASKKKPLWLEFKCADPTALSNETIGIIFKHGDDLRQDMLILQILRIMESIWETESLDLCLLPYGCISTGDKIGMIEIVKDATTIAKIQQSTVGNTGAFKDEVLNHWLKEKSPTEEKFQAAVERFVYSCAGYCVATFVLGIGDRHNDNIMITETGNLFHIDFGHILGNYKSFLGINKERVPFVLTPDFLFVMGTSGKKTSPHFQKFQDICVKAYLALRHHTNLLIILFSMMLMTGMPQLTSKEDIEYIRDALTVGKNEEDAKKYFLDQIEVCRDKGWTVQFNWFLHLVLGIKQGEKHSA
T1 sequence (O00329 whole entry, looked up): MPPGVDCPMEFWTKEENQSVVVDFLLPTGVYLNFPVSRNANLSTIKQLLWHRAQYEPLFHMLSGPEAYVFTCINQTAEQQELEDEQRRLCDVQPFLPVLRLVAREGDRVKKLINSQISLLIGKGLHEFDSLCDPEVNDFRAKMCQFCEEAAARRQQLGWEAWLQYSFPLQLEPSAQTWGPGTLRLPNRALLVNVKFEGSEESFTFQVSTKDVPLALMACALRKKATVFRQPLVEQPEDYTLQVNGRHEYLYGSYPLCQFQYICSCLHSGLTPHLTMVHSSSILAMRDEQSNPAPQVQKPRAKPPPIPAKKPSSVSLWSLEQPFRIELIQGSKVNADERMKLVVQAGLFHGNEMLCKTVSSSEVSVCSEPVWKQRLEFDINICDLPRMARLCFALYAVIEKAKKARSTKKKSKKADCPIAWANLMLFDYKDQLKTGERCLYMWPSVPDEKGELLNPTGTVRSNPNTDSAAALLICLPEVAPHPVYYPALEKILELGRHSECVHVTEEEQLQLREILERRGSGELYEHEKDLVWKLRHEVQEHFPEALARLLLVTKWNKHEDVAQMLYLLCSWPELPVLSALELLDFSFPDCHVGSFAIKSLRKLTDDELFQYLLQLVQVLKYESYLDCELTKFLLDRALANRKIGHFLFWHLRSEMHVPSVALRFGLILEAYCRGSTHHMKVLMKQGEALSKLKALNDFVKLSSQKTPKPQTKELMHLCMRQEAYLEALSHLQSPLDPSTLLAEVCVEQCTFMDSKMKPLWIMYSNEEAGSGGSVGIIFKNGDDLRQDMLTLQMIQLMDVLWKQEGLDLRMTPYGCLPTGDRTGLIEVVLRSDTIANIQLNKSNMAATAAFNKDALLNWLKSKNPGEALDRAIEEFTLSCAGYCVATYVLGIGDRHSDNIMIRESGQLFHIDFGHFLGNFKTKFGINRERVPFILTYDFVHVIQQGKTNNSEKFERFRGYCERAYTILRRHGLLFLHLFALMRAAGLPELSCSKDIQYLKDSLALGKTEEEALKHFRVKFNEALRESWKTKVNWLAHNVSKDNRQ

SMILES | IC50 [1] [nM] | IC50 [2] [nM] | Fold Selectivity γ/δ [2]
O[C@H]1CCN(Cc2cc3nc(-n4c(C(F)F)nc5ccccc54)cc(N4CCOCC4)n3n2)C1 [Compound 21, (3S)-1-({5-[2-(difluoromethyl)-1H-1,3-benzimidazol-1-yl]-7-(morpholin-4-yl)pyrazolo[1,5-a]pyrimidin-2-yl}methyl)pyrrolidin-3-ol] | 956 | 10900 | 11
CC(C)(C(N)=O)N1CCN(C(=O)c2cc3nc(-n4c(C(F)F)nc5ccccc54)cc(N4CCOCC4)n3n2)CC1 [Compound 42, 2-(4-{5-[2-(difluoromethyl)-1H-1,3-benzimidazol-1-yl]-7-(morpholin-4-yl)pyrazolo[1,5-a]pyrimidine-2-carbonyl}piperazin-1-yl)-2-methylpropanamide] | 74 | 3590 | 48
O=C(c1cc2nc(-n3c(C(F)F)nc4ccccc43)cc(N3CCOCC3)n2n1)N1CCC(F)(F)CC1 [Compound 47, 2-(difluoromethyl)-1-[2-(4,4-difluoropiperidine-1-carbonyl)-7-(morpholin-4-yl)pyrazolo[1,5-a]pyrimidin-5-yl]-1H-1,3-benzimidazole] | 801 | 35800 | 45
N#CC1CCN(C(=O)c2cc3nc(-n4c(C(F)F)nc5ccccc54)cc(N4CCOCC4)n3n2)CC1 [Compound 51, 1-{5-[2-(difluoromethyl)-1H-1,3-benzimidazol-1-yl]-7-(morpholin-4-yl)pyrazolo[1,5-a]pyrimidine-2-carbonyl}piperidine-4-carbonitrile] | 344 | 1630 | 4.7
CC(C)(O)C1CCN(C(=O)c2cc3nc(-n4c(C(F)F)nc5ccccc54)cc(N4CCOCC4)n3n2)CC1 [Compound 41] | 101 | 2480 | 25
O[C@@H]1CCN(Cc2cc3nc(-n4c(C(F)F)nc5ccccc54)cc(N4CCOCC4)n3n2)C1 [Compound 22, (3R)-1-({5-[2-(difluoromethyl)-1H-1,3-benzimidazol-1-yl]-7-(morpholin-4-yl)pyrazolo[1,5-a]pyrimidin-2-yl}methyl)pyrrolidin-3-ol] | 979 | 8420 | 8.6
CC1(O)CCN(C(=O)c2cc3nc(-n4c(C(F)F)nc5ccccc54)cc(N4CCOCC4)n3n2)CC1 [Compound 49, 1-{5-[2-(difluoromethyl)-1H-1,3-benzimidazol-1-yl]-7-(morpholin-4-yl)pyrazolo[1,5-a]pyrimidine-2-carbonyl}-4-methylpiperidin-4-ol] | 213 | 1820 | 8.5
CC(C)(C)N1CCN(Cc2cc3nc(-n4c(C(F)(F)F)nc5ccccc54)cc(N4CCOCC4)n3n2)CC1 [Compound 9, 1-{2-[(4-tert-butylpiperazin-1-yl)methyl]-7-(morpholin-4-yl)pyrazolo[1,5-a]pyrimidin-5-yl}-2-(trifluoromethyl)-1H-benzimidazole] | 907 | 135000 | 149
NC1CCN(C(=O)c2cc3nc(-n4c(C(F)F)nc5ccccc54)cc(N4CCOCC4)n3n2)C1 (stereo not shown) [Compound 45, 1-{5-[2-(difluoromethyl)-1H-1,3-benzodiazol-1-yl]-7-(morpholin-4-yl)pyrazolo[1,5-a]pyrimidine-2-carbonyl}pyrrolidin-3-amine] | 1700 | 23300 | 14
C[C@@H]1COCCN1Cc1cc2nc(-n3c(C(F)F)nc4ccccc43)cc(N3CCOCC3)n2n1 [Compound 25, 2-(difluoromethyl)-1-(2-{[(3R)-3-methylmorpholin-4-yl]methyl}-7-(morpholin-4-yl)pyrazolo[1,5-a]pyrimidin-5-yl)-1H-1,3-benzimidazole] | 647 | 1970 | 3.0
CN1CCN(C(=O)c2cc3nc(-n4c(C(F)F)nc5ccccc54)cc(N4CCOCC4)n3n2)CC1 [Compound 56, 2-(difluoromethyl)-1-[2-(4-methylpiperazine-1-carbonyl)-7-(morpholin-4-yl)pyrazolo[1,5-a]pyrimidin-5-yl]-1H-1,3-benzimidazole] | 768 | 11400 | 
CC(=O)NC1CCN(Cc2cc3nc(-n4c(C(F)F)nc5ccccc54)cc(N4CCOCC4)n3n2)CC1 [Compound 35, N-[1-({5-[2-(difluoromethyl)-1H-1,3-benzimidazol-1-yl]-7-(morpholin-4-yl)pyrazolo[1,5-a]pyrimidin-2-yl}methyl)piperidin-4-yl]acetamide] | 445 | 1500 | 3.4
O=C(c1cc2nc(-n3c(C(F)F)nc4ccccc43)cc(N3CCOCC3)n2n1)N1CCC(N2CCOCC2)CC1 [Compound 52, 2-(difluoromethyl)-1-[7-(morpholin-4-yl)-2-[4-(morpholin-4-yl)piperidine-1-carbonyl]pyrazolo[1,5-a]pyrimidin-5-yl]-1H-1,3-benzimidazole] | 92 | 5950 | 65
CC(C)(C)N1CCN(C(=O)c2cc3nc(-n4c(C(F)F)nc5ccccc54)cc(N4CCOCC4)n3n2)CC1 [Compound 40, 1-[2-(4-tert-butylpiperazine-1-carbonyl)-7-(morpholin-4-yl)pyrazolo[1,5-a]pyrimidin-5-yl]-2-(difluoromethyl)-1H-1,3-benzimidazole] | 84 | 48800 | 581
FC(F)c1nc2ccccc2n1-c1cc(N2CCOCC2)n2nc(CN3CCC(F)(F)CC3)cc2n1 [Compound 28, 2-(difluoromethyl)-1-{2-[(4,4-difluoropiperidin-1-yl)methyl]-7-(morpholin-4-yl)pyrazolo[1,5-a]pyrimidin-5-yl}-1H-1,3-benzimidazole] | 443 | 1710 | 3.9
FC(F)c1nc2ccccc2n1-c1cc(N2CCOCC2)n2nc(CN3CCC(N4CCOCC4)CC3)cc2n1 [Compound 33, 2-(difluoromethyl)-1-[7-(morpholin-4-yl)-2-{[4-(morpholin-4-yl)piperidin-1-yl]methyl}pyrazolo[1,5-a]pyrimidin-5-yl]-1H-1,3-benzimidazole] | 276 | 4800 | 17
CC(=O)NC1CCN(C(=O)c2cc3nc(-n4c(C(F)F)nc5ccccc54)cc(N4CCOCC4)n3n2)CC1 [Compound 54, N-(1-{5-[2-(difluoromethyl)-1H-1,3-benzimidazol-1-yl]-7-(morpholin-4-yl)pyrazolo[1,5-a]pyrimidine-2-carbonyl}piperidin-4-yl)acetamide] | 141 | 1690 | 12
O=C(c1cc2nc(-n3c(C(F)F)nc4ccccc43)cc(N3CCOCC3)n2n1)N1CCC(O)CC1 [Compound 53, 1-{5-[2-(difluoromethyl)-1H-1,3-benzimidazol-1-yl]-7-(morpholin-4-yl)pyrazolo[1,5-a]pyrimidine-2-carbonyl}piperidin-4-ol] | 195 | 2080 | 11
FC(F)c1nc2ccccc2n1-c1cc(N2CCOCC2)n2nc(CNC3CCOCC3)cc2n1 [Compound 27, N-({5-[2-(difluoromethyl)-1H-1,3-benzimidazol-1-yl]-7-(morpholin-4-yl)pyrazolo[1,5-a]pyrimidin-2-yl}methyl)oxan-4-amine] | 1810 | 20500 | 11
CNC(=O)CN1CCN(Cc2cc3nc(-n4c(C(F)F)nc5ccccc54)cc(N4CCOCC4)n3n2)CC1 [Compound 36, 2-[4-({5-[2-(difluoromethyl)-1H-1,3-benzimidazol-1-yl]-7-(morpholin-4-yl)pyrazolo[1,5-a]pyrimidin-2-yl}methyl)piperazin-1-yl]-N-methylacetamide] | 63 | 1250 | 20
NC1CCN(Cc2cc3nc(-n4c(C(F)F)nc5ccccc54)cc(N4CCOCC4)n3n2)C1 (stereo not shown) [Compound 20, 1-({5-[2-(difluoromethyl)-1H-1,3-benzimidazol-1-yl]-7-(morpholin-4-yl)pyrazolo[1,5-a]pyrimidin-2-yl}methyl)pyrrolidin-3-amine] | 1890 | 22100 | 12
CC(C)N1CCN(C(=O)c2cc3nc(-n4c(C(F)F)nc5ccccc54)cc(N4CCOCC4)n3n2)CC1 [Compound 57, 2-(difluoromethyl)-1-[7-(morpholin-4-yl)-2-[4-(propan-2-yl)piperazine-1-carbonyl]pyrazolo[1,5-a]pyrimidin-5-yl]-1H-1,3-benzimidazole] | 271 | 25500 | 
OCC1CCN(Cc2cc3nc(-n4c(C(F)F)nc5ccccc54)cc(N4CCOCC4)n3n2)CC1 [Compound 31, [1-({5-[2-(difluoromethyl)-1H-1,3-benzimidazol-1-yl]-7-(morpholin-4-yl)pyrazolo[1,5-a]pyrimidin-2-yl}methyl)piperidin-4-yl]methanol] | 593 | 8320 | 14
O=C(c1cc2nc(-n3c(C(F)F)nc4ccccc43)cc(N3CCOCC3)n2n1)N1CCC(CO)CC1 [Compound 50, (1-{5-[2-(difluoromethyl)-1H-1,3-benzimidazol-1-yl]-7-(morpholin-4-yl)pyrazolo[1,5-a]pyrimidine-2-carbonyl}piperidin-4-yl)methanol] | 90 | 1780 | 20
